Experimental data as given in publication PMC9007462 (Journal of Medicinal Chemistry, 2022).

Experiments:
[1] = molecular target: T1, Human ALDH1A1 (Homo sapiens, UniProt P00352); assay: DEAB analogues as substrates of ALDH1A1; format: biochemical; conditions: 10 μM compound as substrate, relative to activity with 10 μM hexanal (Figure S2)
T1 construct: made in house
T1 sequence (P00352 1-501): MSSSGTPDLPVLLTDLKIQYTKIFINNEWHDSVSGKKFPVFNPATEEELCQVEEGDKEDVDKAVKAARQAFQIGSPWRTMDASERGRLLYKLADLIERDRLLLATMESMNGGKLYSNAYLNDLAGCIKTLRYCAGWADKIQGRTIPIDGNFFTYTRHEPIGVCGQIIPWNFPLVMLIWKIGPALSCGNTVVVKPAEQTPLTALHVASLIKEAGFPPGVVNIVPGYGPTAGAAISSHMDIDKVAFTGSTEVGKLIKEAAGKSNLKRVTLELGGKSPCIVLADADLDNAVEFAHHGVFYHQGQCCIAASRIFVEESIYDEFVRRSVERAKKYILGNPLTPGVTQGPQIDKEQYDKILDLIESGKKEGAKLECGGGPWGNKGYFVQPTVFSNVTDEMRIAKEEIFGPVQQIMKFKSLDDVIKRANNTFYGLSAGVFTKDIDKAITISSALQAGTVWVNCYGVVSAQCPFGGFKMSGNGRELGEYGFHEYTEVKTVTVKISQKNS
Experimental: (§1) Human ALDH1A1, ALDH1A3, and ALDH3A1 were cloned and recombinantly expressed from the pET-30 Xa/LIC vector. Protein purification was achieved by affinity chromatography on a nickel-charged chelating Sepharose Fast Flow 5-mL column (His Trap column, Cytiva), which specifically binds the protein due to its N-terminal (His)6 tag, using an ÄKTA FPLC system (Cytiva), as previously described.[55] Enzymes including the His tag were stored at −80 °C in 20 mM Tris/HCl and 0.5 M NaCl, pH 8.0, until use. Reaction buffers were as follows: ALDH1A1 was assayed in 50 mM HEPES, 0.5 mM EDTA, and 0.5 mM DTT, pH 8.0; ALDH1A3 was assayed in 50 mM HEPES, 30 mM MgCl2, and 5 mM DTT, pH 8.0; and ALDH3A1 was assayed in 50 mM Tris–HCl and 5 mM DTT, pH 8.0. Activity under standard conditions was measured fluorimetrically at 25 °C using a Cary Eclipse (Varian) fluorimeter to follow the purification procedure and to check the enzyme concentration before each kinetic experiment. The fluorescence of NADH was characterized at 460 nm with excitation at 340 nm, and 5 μM NAD(P)H was added as an internal standard to obtain the absolute reaction rates.[55] Standard activity was measured at saturating concentrations of substrate using 30 μM hexanal (ALDH1A1), 250 μM hexanal (ALDH1A3), or 250 μM 4-NBA (ALDH3A1). NAD^+ was 500 μM for ALDH1A1 and ALDH1A3, and NADP^+ was 1 mM for ALDH3A1.
According to their structure with a carbonyl group, compounds were tested for their substrate properties against ALDH1A1, ALDH1A3, and ALDH3A1. […] Results are expressed as the percentage of activity at 10 μM versus the activity at 10 μM of their standard substrate (hexanal or 4-NBA). Values are expressed as the mean ± SE.

[2] = test system: PC3; assay: MTT chemosensitivity assay, PC3; format: cell-based, human; conditions: Homo sapiens, PC-3, 96 h exposure, ± SD, at least three independent experiments
[3] = molecular target: T1, Human ALDH1A1; assay: ALDH1A1 inhibition, IC50 determination; format: biochemical
Experimental: as §1
In order to determine the IC50 values, reaction rates were determined at various concentrations of inhibitor at a fixed concentration of substrate. As substrates for ALDH1A1, ALDH1A3, and ALDH3A1, 5 μM hexanal, 6 μM hexanal, and 31 μM 4-NBA, respectively, were used. The IC50 values were calculated by nonlinear fitting of the obtained data to a sigmoidal plot using GraFit 5.0 (Erithacus software), with the following 4-parameter equation [drawing 2] , where y is the specific activity, x is the inhibitor concentration, background is the minimum y value, range is the fitted uninhibited value minus the background, and s is the slope factor. Values are expressed as the mean ± SE.

[4] = molecular target: T1, Human ALDH1A1; assay: Inhibition screening, single point at 10 μM, ALDH1A1; format: biochemical; conditions: 10 μM compound; 5 μM hexanal (Figure S1)
Experimental: as §1
All compounds tested were dissolved in DMSO and assayed at a final concentration of 1% (v/v) DMSO. […] For the initial screening, the enzymatic activity was measured in 96-well plates (final volume of 200 μL) in a Victor 3 Multilabel Plate Reader (Perkin Elmer), by monitoring the fluorescence of the NAD(P)H produced during the reaction (excitation at 340 nm and emission at 460 nm). Alternatively, the enzymatic activity was measured in a Varian Cary 400 UV–vis spectrophotometer, by monitoring the increase in the absorbance of NAD(P)H at 340 nm (ε = 6.22 mM^–1·cm^–1) or in a Cary Eclipse Varian fluorimeter, as described above. […] For ALDH1A1, 5 μM hexanal (Sigma) was used. For ALDH1A3, 10 and 250 μM hexanal (Sigma) were used. For ALDH3A1, 4-NBA (Sigma) was used at 31 and 250 μM. All substrates were prepared in the corresponding assay buffer at a concentration of 2 mM and further diluted to reach the final concentrations required per experiment. The concentration of the enzyme was kept from 50- to 100-fold lower than that of the substrate for all enzymatic assays.

| ALDH1A1 substrate activity [1] [%] | Structure (SMILES) | IC50 [2] [µM] | IC50 ([3]; 5 μM hexanal as substrate, mean ± SE) [µM] | fold less effective than DEAB in inhibiting ALDH1A1 ([3]; ratio of IC50 values vs DEAB) | remaining ALDH1A1 activity [4] [%] |
| --- | --- | --- | --- | --- | --- |
| 17 | CCCN(CCC)c1ccc(C=O)cc1[N+](=O)[O-] [Compound 18, 4-(Dipropylamino)-3-Nitrobenzaldehyde] | 98 ± 12 |  |  |  |
|  | CCCN(CCC)c1ccc(C=O)cc1Br [Compound 14, 3-Bromo-4-(dipropylamino)benzaldehyde] | 47 ± 6 | 7.08 ± 0.7 | approximately 15 fold | 45 |
